Experiment [1] concerns the target Epidermal growth factor receptor (Homo sapiens, UniProt P00533). Briefly: Inhibition of wild type EGFR (unknown origin) in presence of ATP preincubated 5 mins measured for 30 mins by detection reagent based HTRF analysis.
Experiment [2] relates to NCI-H1975. Briefly: cells. Particulars: Homo sapiens, NCI-H1975, 48 h.
Experiment [3] concerns the target Epidermal growth factor receptor (Homo sapiens, UniProt P00533, L858R/T790M). The experiment is described as follows: Inhibition of recombinant human EGFR T790M/L858R mutant expressed in baculovirus insect cell expression system in presence of ATP preincubated 5 mins measured for 30 mins by detection reagent based HTRF analysis.
Experiment [4] has as its system A-431. Briefly: cells. Conditions: Homo sapiens, A-431, 48 h.
Description: Antiproliferation activity against human A431 cells assessed as reduction in cell viability incubated incubated for 48 hrs by MTT assay
Experiment [5] deals with SW-620. The experiment is described as follows: cells. Conditions: Homo sapiens, SW-620, 48 h.
Description: Antiproliferation activity against EGFR-negative human SW620 cells assessed as reduction in cell viability incubated incubated for 48 hrs by MTT assay
Experiment [6] concerns COS-7. The experiment is described as follows: Cytotoxicity against African green monkey COS7 cells assessed as decrease in cell viability incubated incubated for 48 hrs by MTT assay. The format is cell-based. Conditions: Chlorocebus aethiops, COS-7, 48 h.
In experiment [7] the test system is NCI-H1975. The experiment is described as follows: Cell cycle arrest in human NCI-H1975 cells assessed as accumulation at G2 phase at 1 uM incubated for 24 hrs measured after 2 days by propidium iodide staining based flow cytometric analysis (reference value: 34.04 %). In kind it is functional.
In experiment [8] the test system is NCI-H1975. Briefly: Cell cycle arrest in human NCI-H1975 cells assessed as accumulation at S phase at 1 uM incubated for 24 hrs measured after 2 days by propidium iodide staining based flow cytometric analysis (reference value: 24.04 %). In kind it is functional.
Experiment [9] relates to NCI-H1975. The experiment is described as follows: Cell cycle arrest in human NCI-H1975 cells assessed as accumulation at S phase at 0.25 uM incubated for 24 hrs measured after 2 days by propidium iodide staining based flow cytometric analysis (reference value: 24.04 %). The format is functional.
For experiment [10], the system named is NCI-H1975. Briefly: Cell cycle arrest in human NCI-H1975 cells assessed as accumulation at G2/G1 phase at 0.5 uM incubated for 24 hrs measured after 2 days by propidium iodide staining based flow cytometric analysis (reference value: 1.89 %). In kind it is functional.
In experiment [11] the test system is NCI-H1975. Briefly: Cell cycle arrest in human NCI-H1975 cells assessed as diploid cell at 0.5 uM incubated for 24 hrs measured after 2 days by propidium iodide staining based flow cytometric analysis (reference value: 100 %). In kind it is functional.
Experiment [12] has as its system NCI-H1975. The experiment is described as follows: Cell cycle arrest in human NCI-H1975 cells assessed as accumulation at G2 phase at 0.25 uM incubated for 24 hrs measured after 2 days by propidium iodide staining based flow cytometric analysis (reference value: 34.04 %). The format is functional.
The subject of experiment [13] is NCI-H1975. Briefly: Cell cycle arrest in human NCI-H1975 cells assessed as diploid cell at 0.25 uM incubated for 24 hrs measured after 2 days by propidium iodide staining based flow cytometric analysis (reference value: 100 %). In kind it is functional.
Experiment [14] deals with NCI-H1975. The experiment is described as follows: Cell cycle arrest in human NCI-H1975 cells assessed as accumulation at G1 phase at 0.5 uM incubated for 24 hrs measured after 2 days by propidium iodide staining based flow cytometric analysis (reference value: 41.92 %). The format is functional.
For experiment [15], the system named is NCI-H1975. The experiment is described as follows: Cell cycle arrest in human NCI-H1975 cells assessed as increase in accumulation at G0/G1 phase at 0.25 to 1 uM treated for 24 hrs measured after 2 days by propidium iodide staining based flow cytometric analysis (reference value: 41.92%). In kind it is functional. Conditions: dose microM 0.25-1.
The test system of experiment [16] is NCI-H1975. Briefly: Cell cycle arrest in human NCI-H1975 cells assessed as accumulation at G2/G1 phase at 0.25 uM incubated for 24 hrs measured after 2 days by propidium iodide staining based flow cytometric analysis (reference value: 1.89 %). The format is functional.
Experiment [17] deals with NCI-H1975. Briefly: Cell cycle arrest in human NCI-H1975 cells assessed as accumulation at S phase at 0.5 uM incubated for 24 hrs measured after 2 days by propidium iodide staining based flow cytometric analysis (reference value: 24.04 %). The format is functional.
Experiment [18] deals with NCI-H1975. Briefly: Cell cycle arrest in human NCI-H1975 cells assessed as accumulation at G2/G1 phase at 1 uM incubated for 24 hrs measured after 2 days by propidium iodide staining based flow cytometric analysis (reference value: 1.89 %). In kind it is functional.
The subject of experiment [19] is NCI-H1975. Briefly: Cell cycle arrest in human NCI-H1975 cells assessed as diploid cell at 1 uM incubated for 24 hrs measured after 2 days by propidium iodide staining based flow cytometric analysis (reference value: 100 %). The format is functional.
For experiment [20], the system named is NCI-H1975. Briefly: Cell cycle arrest in human NCI-H1975 cells assessed as accumulation at G2 phase at 0.5 uM incubated for 24 hrs measured after 2 days by propidium iodide staining based flow cytometric analysis (reference value: 34.04 %). In kind it is functional.
In experiment [21] the test system is NCI-H1975. Briefly: Cell cycle arrest in human NCI-H1975 cells assessed as decrease in accumulation at G2/M phase at 0.25 to 1 uM incubated for 24 hrs measured after 2 days by propidium iodide staining based flow cytometric analysis (reference value: 34.04%). In kind it is functional. On the set-up: scale not given: the % may be the effect or the level left. Conditions: dose microM 0.25-1.

The subject of experiment [22] is NCI-H1975. The experiment is described as follows: Cell cycle arrest in human NCI-H1975 cells assessed as accumulation at G1 phase at 1 uM incubated for 24 hrs measured after 2 days by propidium iodide staining based flow cytometric analysis (reference value: 41.92 %). The format is functional.
For experiment [23], the system named is NCI-H1975. The experiment is described as follows: Cell cycle arrest in human NCI-H1975 cells assessed as accumulation at G1 phase at 0.25 uM incubated for 24 hrs measured after 2 days by propidium iodide staining based flow cytometric analysis (reference value: 41.92 %). The format is functional.

Epidermal growth factor receptor (Homo sapiens, UniProt P00533), sequence (P00533 whole entry): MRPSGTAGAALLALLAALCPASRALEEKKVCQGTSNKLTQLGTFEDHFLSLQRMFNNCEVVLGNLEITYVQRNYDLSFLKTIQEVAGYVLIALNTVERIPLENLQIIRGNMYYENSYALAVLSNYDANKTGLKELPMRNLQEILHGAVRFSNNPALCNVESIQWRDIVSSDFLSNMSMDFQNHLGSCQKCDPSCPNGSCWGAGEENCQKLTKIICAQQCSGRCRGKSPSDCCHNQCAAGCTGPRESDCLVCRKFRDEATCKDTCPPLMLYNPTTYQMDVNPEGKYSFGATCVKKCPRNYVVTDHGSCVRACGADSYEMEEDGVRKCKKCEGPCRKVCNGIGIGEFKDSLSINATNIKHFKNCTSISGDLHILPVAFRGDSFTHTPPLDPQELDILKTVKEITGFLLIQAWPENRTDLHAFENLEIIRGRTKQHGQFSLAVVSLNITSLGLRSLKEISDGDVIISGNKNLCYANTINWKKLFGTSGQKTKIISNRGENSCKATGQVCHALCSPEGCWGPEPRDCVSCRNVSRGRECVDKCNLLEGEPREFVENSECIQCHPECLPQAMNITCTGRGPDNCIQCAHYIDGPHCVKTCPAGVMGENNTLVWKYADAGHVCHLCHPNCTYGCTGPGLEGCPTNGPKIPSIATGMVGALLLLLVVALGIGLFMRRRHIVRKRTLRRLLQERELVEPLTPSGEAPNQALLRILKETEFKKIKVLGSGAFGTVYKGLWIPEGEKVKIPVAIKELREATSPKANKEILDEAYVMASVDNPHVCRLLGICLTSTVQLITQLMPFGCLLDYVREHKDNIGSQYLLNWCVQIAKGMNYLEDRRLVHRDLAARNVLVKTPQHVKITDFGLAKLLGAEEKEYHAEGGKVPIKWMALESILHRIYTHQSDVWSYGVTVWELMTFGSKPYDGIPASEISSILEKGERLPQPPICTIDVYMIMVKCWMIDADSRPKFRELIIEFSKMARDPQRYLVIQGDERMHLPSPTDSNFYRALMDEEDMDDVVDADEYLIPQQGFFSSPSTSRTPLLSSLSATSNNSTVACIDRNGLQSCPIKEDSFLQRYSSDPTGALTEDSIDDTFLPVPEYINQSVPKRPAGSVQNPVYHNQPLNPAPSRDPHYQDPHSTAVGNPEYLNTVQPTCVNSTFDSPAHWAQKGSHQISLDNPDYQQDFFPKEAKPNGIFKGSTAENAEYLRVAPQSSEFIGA
Epidermal growth factor receptor (Homo sapiens, UniProt P00533, L858R/T790M), sequence (P00533 25-1210 T790M/L858R limits assumed): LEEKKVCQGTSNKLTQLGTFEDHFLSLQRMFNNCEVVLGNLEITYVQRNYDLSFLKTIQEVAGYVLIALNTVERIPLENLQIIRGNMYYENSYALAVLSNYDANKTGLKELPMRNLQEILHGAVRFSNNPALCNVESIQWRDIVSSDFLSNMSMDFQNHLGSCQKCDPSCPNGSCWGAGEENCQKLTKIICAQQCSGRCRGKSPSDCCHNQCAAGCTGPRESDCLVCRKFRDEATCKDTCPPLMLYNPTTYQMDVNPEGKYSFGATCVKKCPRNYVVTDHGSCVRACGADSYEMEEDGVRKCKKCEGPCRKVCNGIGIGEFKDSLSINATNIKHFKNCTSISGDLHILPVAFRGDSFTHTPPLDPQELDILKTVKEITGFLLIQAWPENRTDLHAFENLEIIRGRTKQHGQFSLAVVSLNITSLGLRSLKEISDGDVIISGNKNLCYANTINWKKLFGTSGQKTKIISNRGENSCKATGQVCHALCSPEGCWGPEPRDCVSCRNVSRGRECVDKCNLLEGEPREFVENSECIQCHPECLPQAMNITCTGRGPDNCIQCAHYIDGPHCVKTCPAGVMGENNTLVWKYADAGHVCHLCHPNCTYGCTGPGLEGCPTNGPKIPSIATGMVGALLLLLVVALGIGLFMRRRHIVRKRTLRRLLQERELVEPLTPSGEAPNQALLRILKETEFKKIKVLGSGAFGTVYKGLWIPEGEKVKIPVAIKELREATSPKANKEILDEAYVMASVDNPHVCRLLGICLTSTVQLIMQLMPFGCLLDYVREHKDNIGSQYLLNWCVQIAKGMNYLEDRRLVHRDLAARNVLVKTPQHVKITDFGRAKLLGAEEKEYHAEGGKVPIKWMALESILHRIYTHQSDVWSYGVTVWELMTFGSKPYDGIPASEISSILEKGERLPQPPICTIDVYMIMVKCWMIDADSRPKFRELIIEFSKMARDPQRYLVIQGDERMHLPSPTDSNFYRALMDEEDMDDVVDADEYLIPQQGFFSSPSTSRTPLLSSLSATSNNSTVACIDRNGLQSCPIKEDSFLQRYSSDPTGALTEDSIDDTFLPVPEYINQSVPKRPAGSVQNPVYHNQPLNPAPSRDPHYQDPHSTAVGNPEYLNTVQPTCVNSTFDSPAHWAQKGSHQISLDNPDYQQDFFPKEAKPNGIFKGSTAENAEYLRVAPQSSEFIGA

For the compound `C=C(Cl)C(=O)Nc1cccc(Nc2nc(Nc3ccc(N4CCN(C(C)=O)CC4)cc3OC)ncc2C(F)(F)F)c1`, the IC50 is 257 nM in [1]; 200 nM in experiment [2]; 16 nM in experiment [3]; 3680 nM in [4]; 3990 nM in experiment [5].
Regarding `C=C(F)C(=O)Nc1cccc(Oc2nc(Nc3ccc(N4CCN(C)CC4)cc3OC)ncc2Cl)c1`, the IC50 came to 16700 nM in experiment [2] and 11000 nM in experiment [4].
As for `C=C(F)C(=O)Nc1cc(Nc2ncc(Cl)c(-c3cn(C)c4ccccc34)n2)ccc1N(C)C`, the IC50 in [2] and in experiment [4] was over 50000 nM each time.
For `C=C(Cl)C(=O)Nc1cccc(Nc2nc(Nc3ccc(N4CCN(C(C)=O)CC4)c(Cl)c3)ncc2Cl)c1`, the IC50 worked out at 53 nM in [1]; 7220 nM in experiment [6]; 1020 nM in [2]; 3.2 nM in [3]; 140 nM in experiment [4]; 2340 nM in [5].
For the compound `C=CC(=O)Nc1cccc(Nc2nc(Nc3ccc(N4CCN(C(C)=O)CC4)cc3OC)ncc2C(F)(F)F)c1` [ROCILETINIB], the IC50 in experiment [6] was determined as 7390 nM; in [2], 510 nM; in experiment [4] it was 6010 nM; in [5], 10500 nM.
As for `C=C(Cl)C(=O)Nc1cccc(Oc2nc(Nc3ccc(N4CCN(C(C)=O)CC4)cc3OC)ncc2Cl)c1`, the IC50 was determined as 3320 nM in experiment [2] and 1890 nM in [4].
As to `C=C(Cl)C(=O)Nc1cccc(Nc2nc(Nc3ccc(N4CCN(C(C)=O)CC4)cc3Cl)ncc2Cl)c1`, the IC50 in [1] was found to be 301 nM; in [6], 14900 nM; in experiment [2] it was 1720 nM; in experiment [3], 47 nM; in [4], 1830 nM; in [5] it was 3020 nM.
For the compound `C=C(Cl)C(=O)Nc1cccc(Nc2nc(Nc3ccc(N4CCN(C(C)=O)CC4)c(F)c3)ncc2Cl)c1`, the IC50 in experiment [2] turned out to be 420 nM; in experiment [4], 1140 nM.
Taken in the same sequence, the figures for `C=C(F)C(=O)Nc1cccc(Nc2nc(Nc3ccc(N4CCN(C(C)=O)CC4)c(F)c3)ncc2Cl)c1` were 6560 nM and 7090 nM.
`C=C(C)C(=O)Nc1cccc(Nc2nc(Nc3ccc(N4CCN(C(C)=O)CC4)cc3OC)ncc2Cl)c1`: the IC50 in experiment [2] worked out at 3820 nM; in experiment [4] it was 2370 nM.
Regarding `C=C(Cl)C(=O)Nc1cccc(Nc2nc(Nc3ccc(N4CCN(C(C)=O)CC4)nc3)ncc2Cl)c1`, the IC50 in [1] came to 130 nM; in [2] it was 1640 nM; in experiment [3], 7.5 nM; in experiment [4], 870 nM; in [5], 2410 nM.
`C=C(F)C(=O)Nc1cccc(Nc2nc(Nc3ccc(N4CCN(C(C)=O)CC4)c(C(F)(F)F)c3)ncc2Cl)c1`: the IC50 in experiment [2] is 9880 nM; in [4], 2860 nM.
For the compound `C=C(Cl)C(=O)Nc1cccc(Nc2nc(Nc3ccc(N4CCN(C(C)=O)CC4)c(C)c3)ncc2Cl)c1`, the IC50 in experiment [1] came out at 51 nM; in [6] it was 5400 nM; in experiment [2], 180 nM; in experiment [3], 2.6 nM; in experiment [4], 1300 nM; in experiment [5], 2070 nM.
As for `C=C(Cl)C(=O)Nc1cccc(Oc2nc(Nc3ccc(N4CCN(C(C)=O)CC4)cc3)ncc2Cl)c1`, the IC50 in experiment [1] was 130 nM; in experiment [2], 1150 nM; in [3], 13 nM; in experiment [4], 620 nM; in [5] it was 4600 nM.
On to `C=C(F)C(=O)Nc1cccc(Nc2nc(Nc3ccc(N4CCN(C(C)=O)CC4)nc3)ncc2Cl)c1`, for which the IC50 in [2] turned out to be 20500 nM; in experiment [4], 18100 nM.
Taken in the same sequence, the figures for `C=C(F)C(=O)Nc1cccc(Nc2nc(Nc3ccc(N4CCN(C(C)=O)CC4)cc3OC)ncc2Cl)c1` were 1820 nM and 1580 nM.
`C=C(F)C(=O)Nc1cccc(Nc2nc(Nc3ccc(N4CCN(C(C)=O)CC4)cc3)ncc2Cl)c1`: the IC50 was determined as 340 nM in experiment [2], 6500 nM in experiment [4] and 3610 nM in experiment [5].
Take `C=C(F)C(=O)Nc1cccc(Nc2nc(Nc3ccc(N4CCN(C(C)=O)CC4)c(Cl)c3)ncc2Cl)c1`: the figures for the IC50 in experiment [2] and in [4] were 4180 nM and 7130 nM, respectively.
For `C=C(C)C(=O)Nc1cccc(Nc2nc(Nc3ccc(N4CCN(C(C)=O)CC4)cc3)ncc2Cl)c1`, the figures for the IC50 in experiment [2] and in experiment [4] were 5570 nM and 10600 nM, respectively.
`C=C(Cl)C(=O)Nc1cccc(Oc2nc(Nc3ccc(N4CCN(C(C)=O)CC4)c(C(F)(F)F)c3)ncc2Cl)c1`: the IC50 in experiment [2] stood at 2500 nM; in experiment [4] it was 1470 nM.
On to `C=C(Cl)C(=O)Nc1cccc(Nc2nc(Nc3ccc(N4CCN(C(C)=O)CC4)cc3)ncc2Cl)c1`, for which the Activity is reported as 19.15% in experiment [7]; 16.89% in [8]; 21.67% in experiment [9]; 1.94% in experiment [10]; 98.81% in experiment [11]; 24.27% in [12]. The Activity stood at 98.52% in experiment [13]; 58.39% in experiment [14]; 58.39% in [15]; 1.95% in experiment [16]; 19.43% in experiment [17]; 1.89% in experiment [18]. Further, the Activity in [19] is 99.81%; in [20], 22.18%; in [21] it was 22.18%; in experiment [22], 63.96%; in [23] it was 54.06%. In addition, the IC50 in [1] was 70 nM; in experiment [6], 10400 nM; in experiment [2] it was 750 nM; in experiment [3], 3.9 nM; in experiment [4], 3140 nM; in experiment [5], 29200 nM.
Turning to `C=C(Cl)C(=O)Nc1cccc(Oc2nc(Nc3ccc(N4CCN(C)CC4)cc3OC)ncc2Cl)c1`, the IC50 was 13600 nM in experiment [2] and 1060 nM in [4].
Taken in the same sequence, the figures for `C=C(F)C(=O)Nc1cccc(Oc2nc(Nc3ccc(N4CCN(C(C)=O)CC4)cc3OC)ncc2Cl)c1` were 7030 nM and over 50000 nM.
For `C=C(Cl)C(=O)Nc1cccc(Nc2nc(Nc3ccc(N4CCN(C(C)=O)CC4)cc3OC)ncc2Cl)c1`, the 50% inhibitory concentration (IC50) turned out to be 3120 nM in experiment [2] and 4440 nM in experiment [4].
Taken in the same sequence, the figures for `C=C(C(=O)Nc1cccc(Nc2nc(Nc3ccc(N4CCN(C(C)=O)CC4)cc3)ncc2Cl)c1)c1ccccc1` were 5790 nM and 6160 nM.
Taken in the same sequence, the figures for `C=C(Cl)C(=O)Nc1cc(Nc2ncc(Cl)c(-c3cn(C)c4ccccc34)n2)ccc1N(C)C` were 16900 nM and 2200 nM.

(Values after ChEMBL document CHEMBL4725398 (Bioorg Med Chem, 2020).)
